Laboratory results from patent US20180133194A1, “METHOD OF TREATING INFLAMMATION USING NATURAL COMPOUNDS AND/OR DIET” (UNIVERSITY OF FLORIDA RESEARCH FOUNDATION, INCORPORATED, priority 2015, published 2018).

Assays:
[1] = in vivo; cited from earlier work
[2] = tested on: hypoxic-ischemic injury; conditions: neonatal rat, cited from earlier work
[3] = cited from earlier work
[4] = tested on: inflammatory cytokines; experiment: Cytokine array (RodentMAP) on plasma in paclitaxel-induced model of inflammation; assay type: in vivo, mice; conditions: compared to control; for macrophage-derived chemokine [MDC/CCL22] level: paclitaxel alone
Description: FIG. 1. Using a drug induced model of inflammation, a cytokine array was used to measure inflammatory cytokines, immune system alteration and the ability of our treatment to attenuate and re-establish normal status. Plasma was isolated from mice treated with the different treatments (control, paclitaxel [PTX, 40 mg/kg], NU.001[CS] and PTX+NU.001[PTX+CS]). * indicates p<0.05 and ** indicates p<0.01, one-way ANOVA or t-test, compared to control. # indicates p<0.05 and ## indicates p<0.01, one-way ANOVA or t-test, compared to PTX.
FIG. 2. NU.001 reduces inflammatory signals in a drug-induced model of inflammation. Animals received oral delivery of NU.001 for 3-4 weeks or a control diet. The microtubule stabilizing agent paclitaxel [40 mg/kg cumulative] was administered to induce inflammation. A cytokine array was used to measure inflammation and immune system status and assess the ability of NU.001 to attenuate or re-establish normal cytokine levels. Plasma was isolated from mice treated with the different treatments (control, paclitaxel, NU.001, and paclitaxel+NU.001). […] Treatment composition is as follows: [1] Control=55% carbohydrates, 30% proteins, 15% fat, [2]
FIGS. 4A-4B. NU.001 increases levels of Leukemia inhibitory factor [LIF] and CCL22. A. After being fed for 3-4 weeks with control diet or NU.001 diet, plasma was isolated for cytokine screening. […] LIF has been proposed to prevent or treat peripheral neuropathy. *, p <0.05, t-test.
The chemotherapeutic agent paclitaxel was used to induce inflammation. Animals were stressed by treating with paclitaxel [40 mg/kg cumulative], resulting in changes in a number of cytokines and related molecules involved in inflammation processes. Animals were treated with NU.001 for 3-4 weeks and blood was taken for plasma isolation. A panel of cytokines was screened using RodentMAP [Myriad/RBM].
Levels of Leukemia inhibitory factor (LIF) were compared in animals treated with control diet or NU.001 diets. After 4 weeks of treatment, blood was taken and plasma was isolated to measure levels of cytokines. […]

[5] = oral doses as high as 500 mg/kg, rodents; cited from earlier work
[6] = 500 mg/kg/day, divided dosage, 13 weeks, pre-fed dogs; cited from earlier work

Compound: C[S+]([O-])CCCCN=C=S (stereo not drawn) [SFN, sulforaphane]
- terminal elimination phase [1]: long
- time to peak plasma levels [1]: ≤ 2 h
- infarct ratio ([2]; at 24 hours after hypoxic ischemia): reduced
- expression of Nrf2 antioxidative transcription factor in the brain ([2]; hypoxic-ischemic injury): increased
- number of apoptotic cells ([2]; hypoxic-ischemic injury): significantly decreased
- safety of dose ([3]; 100 mg SFN from oral intake of 68 grams of broccoli sprouts): safe non-toxic
- adverse effects of administration in humans ([3]; SFN or SFN-enriched dietary origin items such as broccoli sprouts): not demonstrated any significant adverse effects

Compound: CC(=O)O[C@H]1C(=O)[C@@]2(C)[C@H]([C@H](OC(=O)c3ccccc3)[C@]3(O)C[C@H](OC(=O)[C@H](O)[C@@H](NC(=O)c4ccccc4)c4ccccc4)C(C)=C1C3(C)C)[C@]1(OC(C)=O)CO[C@@H]1C[C@@H]2O [paclitaxel]
- inflammation related cytokines ([4]; paclitaxel 40 mg/kg cumulative alone): up-regulated
- macrophage-derived chemokine [MDC/CCL22] level [4]: Lower levels
- macrophage-derived chemokine [MDC/CCL22] level ([4]; listed as Paclitaxel): decrease

Compound: epigallocatechin-3-gallate [EGCG]
- genotoxicity and short term toxicity [5]: no genotoxic or short term toxicity
- adverse events or toxicity [6]: no adverse events or toxicity
